Results on six compounds are retold here after patent publication US20220372014A1, “NEUROPROTECTIVE COMPOUNDS AND METHODS OF USE THEREOF” (The Johns Hopkins University, priority 2019, published 2022).

Entries after “also recorded” stand apart in the source; their conditions may differ.

In one test the test system is SH-SY5Y cells. As to the kind of experiment: MNNG-induced parthanatic cell death in SH-SY5Y cells (Alamar blue cell viability). The format is cell-based. As to conditions: for inhibition of MNNG-induced parthanatic cell death: 50 μM MNNG for 15 min, viability after 24 h; for IC50: Homo sapiens, SH-SY5Y, read-out: IC50, MNNG-induced parthanatic cell death. The source says: We developed an assay to screen for PAAN/MIF nuclease inhibitors. Single-stranded PAAN/MIF nuclease DNA substrate (FIG. 10A) was amine modified on the 5′ end and immobilized on a plate. Hybridization with a biotin-labeled complementary oligonucleotide followed by addition of streptavidin conjugated horseradish peroxidase enzyme (HRP) leads to retention of HRP on the surface within each well in the presence of intact PAAN/MIF nuclease DNA substrate, which can be quantitatively detected through colorimetric change at 450 nm using the HRP substrate 3,3′,5,5′-tetramethylbenzidine (TMB). In the presence of WT PAAN/MIF, there is reduced signal, indicative of cleavage of the PAAN/MIF nuclease substrate, while the signal is not attenuated without recombinant PAAN/MIF (FIGS. 1 and 10B). […] Thus, the rapafucin library containing 45,000 macrocyclic compounds in 3,000 pools of 15 compounds was screened using this assay. […] Several pools were identified that inhibit PAAN/MIF nuclease activity from the primary screen (FIG. 4A). […] Nine pools of compounds were identified that both inhibit PAAN/MIF cleavage of the substrate and protect against MNNG-induced parthanatic cell death by greater than 70% (FIG. 10D). […] Next, the 90 individual compounds in the 6 pools were synthesized and further assessed for inhibition of PAAN/MIF nuclease activity and MNNG-induced parthanatic cell death. Among them 12 compounds (compounds 16-18, 26-28, 41, 56, 66, 67, 76, and 77) were identified that block MIF nuclease activity and MNNG-induced parthanatic cell death by greater than 60% (FIG. 10F). Dose dependence (0.1 to 1.0 μM) were assessed for the 12 compounds against MNNG-induced parthanatic cell death (FIG. 11A and Table 2) and inhibition of PAAN MIF nuclease activity against the RF (FIG. 111B) and PS30 substrates (FIG. 11C).
Cell culture, transfection, primary neuronal culture and treatment. SH-SY5Y cells (ATCC) were cultured in DMEM containing 10% fetal bovine serum and penicillin/streptomycin at 37° C. under 5% C02. The cells were transfected using PolyFect reagent (Qiagen). Parthanatos was induced by the treatment of 50 μM MNNG for 15 min in SH-SY5Y cells. ABT-888 or PAAN/MIF inhibitors were pretreated with indicated concentration 1 h before MNNG treatment and cell death were assessed after 24 h. Primary cortical neurons from WT, PAAN/MIF KO, E22Q KI or P1G KI embryos were prepared as previously described See Kam et al. (2018) Science 362:eaat8407. Briefly, the cortex was dissected and cultured at embryonic day 16 in neurobasal media supplemented with B-27, 0.5 mM L-glutamine, penicillin and streptomycin (Invitrogen). Primary neurons were infected with AAV2-control, AAV2-PAAN/MIF WT, AAV2-PAAN/MIF E22Q, AAV2-PAAN/MIF E22A or AAV2-MIF P1G (ViGene Biosciences) at days in vitro (DIV) 4-5. ABT-888 or PAAN/MIF inhibitors were applied to neurons 1 h before α-syn PFF treatment. The neuron growth medium was replaced with fresh medium alone or including inhibitors every 3-4 days. α-syn PFF was added at DIV 7 and further incubated for indicated times followed by the cell death assay or biochemical experiments.
Cell death and viability assessment. Primary cultured cortical neurons were treated with 5 μg/ml of α-syn PFF for 14 days and cell death was determined by staining of all nuclei with 7 μM Hoechst 33342 and dead cell nuclei with 2 μM propidium iodide (PI) (Invitrogen). The numbers of total and dead cells were counted with the Axiovision 4.6 software (Carl Zeiss). Cell viability was determined by fluorescence at an excitation wavelength 570 nm and an emission wavelength 585 nm using Alamar Blue (Invitrogen). […]

The target in another test is T1, PAAN/MIF (Homo sapiens, UniProt P14174).
T1 construct: GST (N, cleaved yes); made in house; host or cells: Escherichia coli
T1 sequence (P14174 1-115): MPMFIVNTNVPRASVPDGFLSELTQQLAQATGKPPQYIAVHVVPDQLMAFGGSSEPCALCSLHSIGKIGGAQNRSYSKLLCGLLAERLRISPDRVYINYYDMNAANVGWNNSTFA
As to the kind of experiment: In vitro PAAN/MIF nuclease assay (PS30 or RF substrate, PAGE gel, noncleaved substrate DNA). Format: biochemical. The settings on record: RF and PS30 substrates. Here is the method:
Nuclease assay. Purified PAAN/MIF protein (4 μM) was incubated with compounds (10 μM) in the nuclease buffer [10 mM Tris-C1 (pH 7.0) and 10 mM MgCl2] for 20 m on ice. Then samples were added with 1 μM of PAAN/MIF substrate (PS30 or RF) and incubated for 1 h at 37° C. The reaction was terminated with loading buffer containing 10 mM EDTA and separated on 15% TBE-urea polyacrylamide (PAGE) gel or 20% TBE PAGE gel.
Purification of PAAN/MIF recombinant proteins. Human PAAN/MIF (NM_002415) cDNA and its variants were subcloned into pGEX-6β-1 vector (GE Healthcare) and mutants were generated using a QuikChange site-directed mutagenesis kit (Stratagene). The sequences were confirmed by automated DNA sequencing. The protein was expressed and purified from Escherichia coli by glutathione sepharose (GE Healthcare). The GST tag was subsequently proteolytically removed. GST protein was used as a negative control in the nuclease assay and PAAN/MIF proteins purified by FPLC using Superdex 200 10/300GL column (GE Healthcare, Life Sciences) were also used in the nuclease assays.

Test [1] deals with HeLa cells or neuronal cells. The experiment in a line: Cell death assay of Example 3 (MNNG, alamarBlue; protection against parthanatos, Table 4). The format is cell-based. The settings on record: 1 μM test compound, MNNG-induced cell death, alamarBlue. The method in brief:
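HeLa or neuronal cells (1×10^4/well) were pretreated 1 h at 37° C with 1 μM compound, exposed to MNNG for 15 min, washed, then re-incubated 18 h with 1 μM compound. Viability was read by alamarBlue fluorescence (ex 560/em 590 nm). Cell death was expressed relative to control wells.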
(Resazurin is reduced to fluorescent resorufin, in cell work by metabolically active cells.)

By IC50 is commonly meant the point on the concentration scale where inhibition reaches its midpoint. With `COc1ccc(CC[C@H]2OC(=O)[C@@H]3CCCCN3C(=O)C(=O)C(C)(C)COC(=O)C=CCCN(C)C(=O)[C@@H]3CCCN3C(=O)[C@H](COC(C)(C)C)N(C)C(=O)C(c3ccccc3)NC(=O)[C@H](C)N(C)C(=O)COc3cc(F)cc2c3)cc1OC` (mixture of isomers) [compound 121], in the test on SH-SY5Y cells, the “inhibition of MNNG-induced parthanatic cell death” value was “blocked” and the IC50 came to 280 nM. For the same compound, in the test with SH-SY5Y cells (PAAN/MIF KO SH-SY5Y cells expressing L61A, 60-63A or N72A, 1 μM), the “protection against MNNG-induced parthanatic cell death in PAAN/MIF mutant cells” value was “significantly reduced”. Besides, at PAAN/MIF, the “inhibition of PAAN/MIF nuclease activity” value is reported as “inhibited”. Also, in test [1], the “(%) inhibition of cell death” value was 90.1%.

Consider `COc1ccc(CC[C@H]2OC(=O)[C@@H]3CCCCN3C(=O)C(=O)C(C)(C)COC(=O)C=CCCN(C)C(=O)[C@@H]3CCCN3C(=O)[C@H](COC(C)(C)C)N(C)C(=O)C(c3ccccc3)NC(=O)CN(C)C(=O)COc3cccc2c3)cc1OC` (stereo partly drawn) [compound 41], for which the “inhibition of MNNG-induced parthanatic cell death” value in the test on SH-SY5Y cells was “prominently blocked”. In addition, at PAAN/MIF, the “inhibition of PAAN/MIF nuclease activity” value is “prominently blocked”. The “(%) inhibition of cell death” value in test [1] (1 µM) worked out at 80.6%.

Turning to `COc1ccc(CC[C@H]2OC(=O)[C@@H]3CCCCN3C(=O)C(=O)C(C)(C)COC(=O)C=CCCN(C)C(=O)[C@@H]3CCCN3C(=O)[C@H](COC(C)(C)C)N(C)C(=O)C(c3ccccc3)NC(=O)[C@H](C)N(C)C(=O)COc3cccc2c3)cc1OC` (stereo partly drawn) [compound 56], in the test with SH-SY5Y cells, the “inhibition of MNNG-induced parthanatic cell death” value is “prominently blocked” and the IC50 was 520 nM. Also, at PAAN/MIF, the “inhibition of PAAN/MIF nuclease activity” value is recorded as “prominently blocked; also recorded: inhibited”. Also, in test [1] (1 µM), the “(%) inhibition of cell death” value turned out to be 81.5%.

`COc1ccc(CC[C@H]2OC(=O)[C@@H]3CCCCN3C(=O)C(=O)C(C)(C)COC(=O)C=CCCN(C)C(=O)CNC(=O)[C@H](C(C)C)N(C)C(=O)[C@@H](Cc3ccccc3)NC(=O)[C@H](CC(C)C)N(C)C(=O)CCC(=O)Nc3cccc2c3)cc1OC` [compound 76]: the “inhibition of MNNG-induced parthanatic cell death” value with SH-SY5Y cells is “prominently blocked”. In addition, on PAAN/MIF, the “inhibition of PAAN/MIF nuclease activity” value is on record as “prominently blocked”. In addition, in test [1], the “(%) inhibition of cell death” value worked out at 79.2%.

For the compound `COc1ccc(CC[C@H]2OC(=O)[C@@H]3CCCCN3C(=O)C(=O)C(C)(C)COC(=O)C=CCCN(C)C(=O)[C@H](C)NC(=O)[C@H](C(C)C)N(C)C(=O)[C@@H](Cc3ccccc3)NC(=O)[C@H](CC(C)C)N(C)C(=O)CCC(=O)Nc3cccc2c3)cc1OC` [compound 77], the “inhibition of MNNG-induced parthanatic cell death” value in the test on SH-SY5Y cells is given as “prominently blocked”. The “inhibition of PAAN/MIF nuclease activity” value against PAAN/MIF is listed as “prominently blocked”. For the same compound, the “(%) inhibition of cell death” value in test [1] turned out to be 77.9%.

For the compound `COc1ccc(CC[C@H]2OC(=O)[C@@H]3CCCCN3C(=O)C(=O)C(C)(C)COC(=O)C=CCCN(C)C(=O)[C@@H]3CCCN3C(=O)[C@H](CO)N(C)C(=O)C(c3ccccc3)NC(=O)[C@H](C)N(C)C(=O)COc3cccc2c3)cc1OC` (stereo partly drawn) [compound 97], the “inhibition of MNNG-induced parthanatic cell death” value with SH-SY5Y cells is reported as “has no effect”. Further, the “inhibition of PAAN/MIF nuclease activity” value against PAAN/MIF is “has no effect”. In addition, in test [1], the “(%) inhibition of cell death” value came to 41.4%.
